Our source for the IC50 values is patent US20200181104A1, “SSAO INHIBITORS AND USES THEREOF” (METACRINE, INC., priority 2018, published 2020).

The structures appear in SMILES notation.

The assay concerns the target T1, Recombinant Human SSAO/VAP-1/AOC3 (Homo sapiens, UniProt Q16853).
T1 construct: purchased R&D systems 3957-AO
T1 sequence (Q16853 1-763): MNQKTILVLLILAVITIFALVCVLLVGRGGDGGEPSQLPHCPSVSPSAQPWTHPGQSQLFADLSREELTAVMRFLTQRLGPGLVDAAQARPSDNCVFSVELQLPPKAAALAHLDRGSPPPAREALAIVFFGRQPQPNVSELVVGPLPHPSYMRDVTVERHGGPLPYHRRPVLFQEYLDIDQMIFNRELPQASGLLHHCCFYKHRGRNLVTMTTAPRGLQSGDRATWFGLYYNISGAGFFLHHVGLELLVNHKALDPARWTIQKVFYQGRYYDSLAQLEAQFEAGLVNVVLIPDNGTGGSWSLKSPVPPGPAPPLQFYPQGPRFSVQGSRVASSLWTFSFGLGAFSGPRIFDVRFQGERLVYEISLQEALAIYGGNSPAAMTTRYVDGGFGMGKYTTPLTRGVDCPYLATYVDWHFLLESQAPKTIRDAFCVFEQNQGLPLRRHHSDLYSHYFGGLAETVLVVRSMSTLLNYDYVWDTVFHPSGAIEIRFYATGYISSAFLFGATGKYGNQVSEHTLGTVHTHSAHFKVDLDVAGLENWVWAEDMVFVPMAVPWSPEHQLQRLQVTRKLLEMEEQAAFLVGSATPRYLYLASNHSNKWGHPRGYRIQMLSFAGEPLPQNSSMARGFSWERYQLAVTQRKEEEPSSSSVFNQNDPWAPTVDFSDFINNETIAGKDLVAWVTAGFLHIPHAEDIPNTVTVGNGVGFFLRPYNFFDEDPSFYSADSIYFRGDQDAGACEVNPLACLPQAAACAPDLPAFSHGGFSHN
The experiment in a line: Human Semicarbazide-Sensitive Amine Oxidase (SSAO) Assay. Format: biochemical. As to conditions: recombinant enzyme, 30 minutes preincubation at 37° C., benzylamine substrate, Amplex Ultra Red/HRP fluorescence. The method, boiled down: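 IC50 from kinetic Amplex Ultra Red/HRP fluorescence (ex 544, em 590 nm, 30-120 min) after benzylamine addition. Beforehand, 6-10 compound dilutions were preincubated 30 min at 37 °C with recombinant human SSAO in 50 mM HEPES (enzyme working concentration 2.5 μg/ml).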
`COCC1(CNC(=O)C23CCC(c4ccc(OC/C(=C/F)CN)cc4)(CC2)CC3)CC1` [Compound 2.151, (E)-4-(4-((2-(aminomethyl)-3-fluoroallyl)oxy)phenyl)-N-((1-(methoxymethyl)cyclopropyl)methyl)bicyclo[2.2.2]octane-1-carboxamide]: the IC50 – broadly, the concentration that inhibits the measured activity by half – is no more than 10 nM. For `NC/C(=C\F)COc1ccc(C23CCC(C(=O)NCCO)(CC2)CC3)cc1` [Compound 2.47, (E)-4-(4-((2-(aminomethyl)-3-fluoroallyl)oxy)phenyl)-N-(2-hydroxyethyl)bicyclo[2.2.2] octane-1-carboxamide], the IC50 is no more than 10 nM. For `CC(C)CNC(=O)C12CCC(c3ccc(OC/C(=C/F)CN)cc3)(CC1)CC2` [Compound 2.88, (E)-4-(4-((2-(aminomethyl)-3-fluoroallyl)oxy)phenyl)-N-isobutylbicyclo[2.2.2]octane-1-carboxamide], the IC50 is no more than 10 nM. With `COC1(CNC(=O)C23CCC(c4ccc(OC/C(=C/F)CN)cc4)(CC2)CC3)CCCCC1` [Compound 2.102, (E)-4-(4-((2-(aminomethyl)-3-fluoroallyl)oxy)phenyl)-N-((1-methoxycyclohexyl)methyl) bicyclo[2.2.2]octane-1-carboxamide], the IC50 fell in the range of 10 to 100 nM. For `COC1CN(C(=O)C23CCC(c4ccc(OC/C(=C/F)CN)cc4)(CC2)CC3)C1` [Compound 2.39, (E)-(4-(4-((2-(aminomethyl)-3-fluoroallyl)oxy)phenyl)bicyclo [2.2.2]octan-1-yl)(3-methoxyazetidin-1-yl)methanone] the value was no more than 10 nM; for `COc1cncc(CNC(=O)C23CCC(c4ccc(OC/C(=C/F)CN)cc4)(CC2)CC3)n1` [Compound 2.161, (E)-4-(4-((2-(aminomethyl)-3-fluoroallyl)oxy)phenyl)-N-((6-methoxypyrazin-2-yl)methyl)bicyclo[2.2.2]octane-1-carboxamide], no more than 10 nM. Consider `NC/C(=C\F)COc1ccc(C23CCC(NS(=O)(=O)C4CC4)(CC2)CC3)cc1` [Compound 7.03, (E)-N-(4-(4-((2-(aminomethyl)-3-fluoroallyl)oxy)phenyl)bicyclo[2.2.2]octan-1-yl)cyclopropanesulfonamide], for which the IC50 was no more than 10 nM. In the case of `CC(C)(CO)CNC(=O)C12CCC(c3ccc(OC/C(=C/F)CN)cc3)(CC1)CC2` [Compound 2.77, (E)-4-(4-((2-(aminomethyl)-3-fluoroallyl)oxy)phenyl)-N-(3-hydroxy-2,2-dimethylpropyl)bicyclo[2.2.2] octane-1-carboxamide], the IC50 is no more than 10 nM.

Turning to `NC/C(=C\F)COc1ccc(C23CCC(C(=O)NC4CCC5(CCOCC5)CC4)(CC2)CC3)cc1` [Compound 2.131, (E)-4-(4-((2-(aminomethyl)-3-fluoroallyl)oxy)phenyl)-N-(3-oxaspiro[5.5]undecan-9-yl)bicyclo[2.2.2]octane-1-carboxamide], the IC50 was no more than 10 nM. As for `NC/C(=C\F)COc1ccc(C23CCC(C(=O)N4CC(C(=O)O)C4)(CC2)CC3)cc1` [Compound 2.13, (E)-1-(4-(4-((2-(aminomethyl)-3-fluoroallyl)oxy)phenyl)bicyclo[2.2.2]octane-1-carbonyl)azetidine-3-carboxylic acid], the IC50 is no more than 10 nM. As for `NC/C(=C\F)COc1ccc(C23CCC(C(=O)N4CC5CCC(C4)O5)(CC2)CC3)cc1` [Compound 2.71, (E)-(4-(4-((2-(aminomethyl)-3-fluoroallyl)oxy)phenyl)bicyclo [2.2.2]octan-1-yl)(8-oxa-3-azabicyclo[3.2.1]octan-3-yl)methanone], the IC50 was no more than 10 nM. For the compound `NC/C(=C\F)COc1ccc(C23CCC(C(=O)NC4CCOC5(CCC5)C4)(CC2)CC3)cc1` (stereo not drawn) [Compound 2.154, (E)-4-(4-((2-(aminomethyl)-3-fluoroallyl)oxy)phenyl)-N-(5-oxaspiro[3.5]nonan-8-yl)bicyclo[2.2.2]octane-1-carboxamide], the IC50 was no more than 10 nM.
